This is an account of results in PMC3587609, “A Novel Cell-Penetrating Peptide Derived from Human Eosinophil Cationic Protein” (PLoS ONE, 2013).

One series has as its system CHO-pgsD677 cells. Briefly: Cell-based ELISA: binding to HS-deficient CHO cells. Conditions: CHO-pgsD677 cells (lack HS), 5 µM FITC-ECP32–41, 4°C, 1 h, CHO-K1 normalized to 100%, n = 3. Further details: species or system Chinese hamster. As for the experimental part:
Cell-membrane GAGs including HS, CS/DS, and HA are necessary for CPP internalization, [6]. To assess the effect of GAGs on ECP^32–41 cellular binding ability, soluble GAGs including LMWH, CSC, and HA were used as competitors to inhibit the attachment of ECP^32–41 to Beas-2B cells. […] To clarify the roles of cell-surface HS and CS, the binding of ECP^32–41 to wild-type and two mutant strains of Chinese hamster ovary (CHO) cells was assessed by ELISA. […] CHO-pgsA745 cells are deficient in xylosyltransferase so that no GAG was present on the surface. […] GAGs, and especially HSPGs, are therefore crucial for the initial interaction of ECP^32–41 with cell surfaces.
Figure 2 Cell-surface GAG-dependent binding of ECP^32–41. […] After washed twice with PBS, cells were subjected to ELISA. […] (B) CHO cells were incubated with 5 µM FITC-ECP^32–41 at 4°C for 1 h, washed twice with PBS, and subjected to ELISA. The amount of FITC-ECP^32–41 bound to CHO-K1 cells was normalized to 100%.
Cells (2×10^4/well) were seeded into 96-well black plate and incubated under a 5% CO2 atmosphere at 37°C for 24 h. Each well was then washed with 150 µl ice-cold PBS. […] Each well was then washed with 100 µl PBS and the FITC fluorescent intensity for each sample was measured using a fluorescence spectrophotometer (Wallac Victor II, Perkin Elmer, USA) and excitation and emission wavelengths of 485 nm and 521 nm respectively.
In general terms: An ELISA detects its analyte on a solid surface through an enzyme-linked reagent.

In series [1] the test system is Beas-2B cells. Briefly: Cell viability assay (MTT). The protocol: Beas-2B cells were grown in serum-free medium in the presence of ECP^32–41 at indicated concentrations for 24 h. (A) The cytotoxic effect of ECP^32–41 was measured by MTT assay. The cell viability of untreated cells was set to 100%. Cells treated with 0.1% Triton X-100 was used as a positive control. (B) The membrane disruption by ECP^32–41 was measured by LDH assay. LDH released from cells lysed with 0.1% Triton X-100 in medium was defined as 100% leakage and LDH released from untreated cells was set as 0% leakage.
Beas-2B cells were incubated with 10 µM eGFP or eGFP-ECP^32–41 at 37°C for 1 h. The cells were then washed with 500 µl PBS, trypsinized at 37°C for 15 min, suspended in 500 µl PBS, and subjected to flow cytometry. (B) Beas-2B cells were treated with the indicated concentrations of TAT^47–57, ECP^32–41, KLA, KLA-TAT^47–57 or KLA-ECP^32–41 at 37°C for 24 h, and their cytotoxic effects were determined by the MTT assay. Cytotoxic effects of (C) KLA-TAT^47–57 and (D) KLA-ECP^32–41, at the indicated concentrations, on Beas-2B, A549, Caco-2, and AGS cells were assessed by the MTT assay after incubation at 37°C for 24 h. The cell viability untreated cells was set to 100%. The result is expressed as the mean ± S.D., n = 3.
The effects of the peptides on cell viability were determined colourimetrically using 3-(4,5-dimethylthiazol-2-yl)-2,5-diphenyltetrazolium bromide (MTT) (US Biological). Cells (1.0×10^4/well) were seeded into the wells of 96-well plates and incubated overnight. Cell samples were then exposed to different concentrations of TAT^47–57, ECP^32–41, KLA, KLA-TAT^47–57 or KLA-ECP^32–41. After 24 h, 100 µl of 0.5 mg/ml MTT in medium was added into each well, and the cells were incubated at 37°C for 3 h. The incubation medium was removed, and the remaining purple crystal formazan was dissolved in dimethylsulphoxide. Cells treated with 0.1% Triton X-100 was used as a positive control for cell viability. A540 values were measured using a multiwall plate reader (Molecular Devices).

The test system of series [2] is Beas-2B cells. Put plainly: Membrane disruption assay (LDH leakage). Format: cell-based. Particulars: up to 100 µM, 37°C, 24 h, 0.1% Triton X-100 = 100% leakage, P>0.05, n = 3. The protocol:
Lactate dehydrogenase (LDH) was used to quantify membrane disruption. The release of LDH from cells was measured by Promega CytoTox-ONE assay (Promega, USA). […] Cell samples were then exposed to different concentrations of ECP^32–41. After 24 h, 100 µl of extracellular medium was transferred to a black 96-well plate containing 100 µl of CytoTox-ONE reagent, incubated at RT for 10 min. Fluorescent intensity for each sample was measured using a fluorescence spectrophotometer (Wallac Victor II, Perkin Elmer, USA) and excitation and emission wavelengths of 540 nm and 590 nm respectively.
Background: Release of lactate dehydrogenase indicates damage to the cell membrane.

As to NYRWRCKNQN [ECP^32–41], the “reduction of binding versus CHO-K1 cells” value in the series on CHO-pgsD677 cells was found to be 31%. For the same sequence, in the series with Beas-2B cells [1], the “cell viability (MTT) at 100 µM” value is recorded as “neither peptide affected cell viability”. Moreover, the “LDH levels (membrane disruption), treated versus untreated cells” value with Beas-2B cells [2] is listed as “no significant changes”.
